In patent publication US12492197B2, “3,5-disubstituted pyrazole compounds as kinase inhibitors and uses thereof” (IMPACT THERAPEUTICS (SHANGHAI), INC, priority 2019, dated 2025):

Key:
[1] = target: T1, CHK1 kinase (Homo sapiens, UniProt O14757); assay: CHK1 kinase inhibition, ADP-Glo kinase assay; format: biochemical; conditions: compound concentration 10 nM; ATP 10 μM; CHK1 1 ng/well; read-out: Inh % (inhibitory effect on CHK1 kinase activity)
T1 construct: purchased Promega V1941
T1 sequence (O14757 1-476): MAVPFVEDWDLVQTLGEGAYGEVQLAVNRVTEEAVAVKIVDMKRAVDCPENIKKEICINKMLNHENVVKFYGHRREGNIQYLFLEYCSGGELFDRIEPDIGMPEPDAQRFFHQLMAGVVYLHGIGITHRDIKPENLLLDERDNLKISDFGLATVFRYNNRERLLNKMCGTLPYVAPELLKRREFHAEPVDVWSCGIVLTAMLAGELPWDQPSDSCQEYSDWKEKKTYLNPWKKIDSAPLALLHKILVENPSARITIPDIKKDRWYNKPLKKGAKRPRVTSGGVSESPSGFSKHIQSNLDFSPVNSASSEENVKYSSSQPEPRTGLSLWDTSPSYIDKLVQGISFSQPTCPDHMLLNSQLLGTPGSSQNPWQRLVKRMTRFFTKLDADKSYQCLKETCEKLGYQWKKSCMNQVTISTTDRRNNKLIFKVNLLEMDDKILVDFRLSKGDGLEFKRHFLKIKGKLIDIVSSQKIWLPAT
Procedure: 2 μL of kinase CHK1 (#V1941, Promega), 1 μL of compound diluted with buffer, and 2 μL of ATP substrate was successively added to a 384-well plate (final concentration of CHK1 was 1 ng/well, ATP was 10 μM). The positive control wells contained CHK1, ATP and DMSO whereas the negative control wells contained ATP, DMSO without enzyme. The mixtures were centrifuged at 1000 rpm for 1 minute and kept in darkness at room temperature for 1 hour to react. Then, 5 μL of ADP-Glo reagent was added to each well and incubated at room temperature for 40 minutes. At the end of incubation, 10 μL of kinase detection reagent was added to each well, and the relative chemiluminescence values (RLU) were measured on Varioskan® Flash (Thermo). The following calculation was performed: Inhibition rate %=(RLU of positive control−RLU of compound)/(RLU of positive control−RLU of negative control)×100. Data were analyzed using GraphPad Prism6.0 and fitted using the curve equation: Y=Bottom+(Top-Bottom)/(1+10^((Log IC50−X)*HillSlope)), and IC50 values were calculated.

[2] = test system: human colon cancer cell LoVo; assay: Proliferation of LoVo cells, MTT assay; format: cell-based; conditions: 96 h, 4 days treatment, read-out: IC50 (inhibition of proliferation of LoVo)
Procedure: Newly revived LoVo cells (purchased from Shanghai Cell Institute) were cultured and passaged for at least three generations before use. Cells were used at 90% confluence for experiment. Cells were digested with trypsinase and centrifuged at 800 rpm for 5 minutes and the supernatant was discarded. The cell pellets were resuspended in fresh RPMI1640 medium and counted. Cells were seeded on 96-well cell culture plates at 5000 cells/well and incubated overnight at 37° C., 5% CO2. The stock solutions of the test substances (including the test compounds and the reference compound) were serially diluted to 8 concentrations with DMSO at a ratio of 1:3. 5 μL of each series diluted solutions was added to 120 μL of medium (diluted by 25 times) and mixed by shaking. […] The cell culture plates were returned to incubator at 37° C. and 5% CO2 for 4 days. At the end of treatment, the cell viability was determined by MTT colorimetric assay. Cell culture medium in each well was replaced by 100 μL/well of serum-free DMEM medium containing MTT (0.5 mg/mL), and the culture was continued for additional 4 hours. Medium was then discarded and 100 μL/well of DMSO was added.
(§1) Data was analyzed by GraphPad Prism 6.0. The inhibitory effects of compounds on cell proliferation were plotted based on cell viability vs. the logarithm of compound concentration. Cell viability %=(ODcompound−ODbackground)/(ODDMSO−ODbackground)×100.

[3] = test system: human breast cancer cell HCC1806; assay: Proliferation of HCC1806 cells, MTT assay; format: cell-based; conditions: HCC1806, 72 h, 3 days treatment, read-out: IC50 (inhibition of proliferation of HCC1806)
Procedure: Newly revived HCC1806 cells (purchased from Guangzhou Genio) were cultured and passaged for at least three generations before use. Cells were used at 90% confluency for experiments. Cells were digested with trypsinase and centrifuged at 800 rpm for 5 minutes. The cell pellets were resuspended in fresh RPMI1640 medium and cells were counted. Cells were seeded on 96-well cell culture plates at 2000 cells/well and incubated overnight at 37° C., 5% CO2. The stock solutions of the test substances (including the test compounds and the reference compound) were serially diluted to 8 concentrations with DMSO at a ratio of 1:3. Five μL of each of the serially diluted solutions were added to 120 μL of medium (diluted by 25 times) and mixed by shaking. […] The cell culture plates were returned to incubator at 37° C., 5% CO2 for 3 days. At the end of treatment the cell viability was determined by MTT colorimetric assay. Cell culture medium in each well was replaced by 100 μL/well of serum-free fresh medium containing MTT (0.5 mg/mL), and the culture was continued for additional 4 hours.
as §1

SMILES | inhibition at 0.01 µM [1] | IC50 [2] | IC50 [3]
COc1cc(C(F)(F)F)cc(OC[C@@H]2CNCCO2)c1-c1cc(Nc2cnc(C#N)cn2)n[nH]1 [Example 19, (S)-5-((5-(2-methoxy-6-(morpholin-2-ylmethoxy)-4-(trifluoromethyl)phenyl)-1H-pyrazol-3-yl)amino)pyrazine-2-carbonitrile] | 91% | 31.2 nM | 31.4 nM
COc1cccc(OC[C@H]2CCCNC2)c1-c1cc(Nc2ccc(C#N)cn2)n[nH]1 [Example 24, (S)-6-((5-(2-methoxy-6-(piperidin-3-ylmethoxy)phenyl)-1H-pyrazol-3-yl)amino)nicotinonitrile] | 89% | 70.8 nM | 69.2 nM
COc1cccc(OC[C@H]2CCCNC2)c1-c1cc(Nc2ccc(C#N)nn2)n[nH]1 [Example 25, (S)-6-((5-(2-methoxy-6-(piperidin-3-ylmethoxy)phenyl)-1H-pyrazol-3-yl)amino)pyridazine-3-carbonitrile] | 91% | 104 nM | 113 nM
COc1cccc(OC[C@H]2CCCNC2)c1-c1cc(Nc2ncc(C#N)nc2C)n[nH]1 [Example 29, (S)-5-((5-(2-methoxy-6-(piperidin-3-ylmethoxy)phenyl)-1H-pyrazol-3-yl)amino)-6-methylpyrazine-2-carbonitrile] | – | > 1000 nM | > 1000 nM
COc1cc(F)cc(OCC2CNCCC2(C)C)c1-c1cc(Nc2cnc(C#N)cn2)n[nH]1 (stereo not shown) [Example 50, 5-((5-(2-((4,4-dimethylpiperidin-3-yl)methoxy)-4-fluoro-6-methoxyphenyl)-1H-pyrazol-3-yl)amino)pyrazine-2-carbonitrile] | – | 35.2 nM | 26.8 nM
COc1cccc(OC[C@H]2CCCNC2)c1-c1[nH]nc(Nc2cnc(C#N)cn2)c1C [Example 51, (S)-5-((5-(2-methoxy-6-(piperidin-3-ylmethoxy)phenyl)-4-methyl-1H-pyrazol-3-yl)amino)pyrazine-2-carbonitrile] | – | > 1000 nM | > 1000 nM
N#Cc1cnc(Nc2cc(-c3c(F)cc(Cl)cc3OC[C@@H]3CNCCO3)[nH]n2)cn1 [Example 58, (S)-5-((5-(4-chloro-2-fluoro-6-(morpholin-2-ylmethoxy)phenyl)-1H-pyrazol-3-yl)amino)pyrazine-2-carbonitrile] | – | 913 nM | > 1000 nM
N#Cc1cnc(Nc2cc(-c3c(F)cc(Br)cc3OC[C@@H]3CNCCO3)[nH]n2)cn1 [Example 60, (S)-5-((5-(4-bromo-2-fluoro-6-(morpholin-2-ylmethoxy)phenyl)-1H-pyrazol-3-yl)amino)pyrazine-2-carbonitrile] | – | 554 nM | > 1000 nM
Cc1cc(F)c(-c2cc(Nc3cnc(C#N)cn3)n[nH]2)c(OCC2CNC2)c1 [Example 61, 5-((5-(2-(azetidin-3-ylmethoxy)-6-fluoro-4-methylphenyl)-1H-pyrazol-3-yl)amino)pyrazine-2-carbonitrile] | – | 97 nM | 111 nM
Cc1cc(F)c(-c2cc(Nc3cnc(C#N)cn3)n[nH]2)c(OC[C@@H]2CNCCO2)c1 [Example 64, (S)-5-((5-(2-fluoro-4-methyl-6-(morpholin-2-ylmethoxy)phenyl)-1H-pyrazol-3-yl)amino)pyrazine-2-carbonitrile] | – | 323 nM | 676 nM
COc1cc(C)cc(OCC2CNC2)c1-c1cc(Nc2cnc(C#N)cn2)n[nH]1 [Example 72, 5-((5-(2-(azetidin-3-ylmethoxy)-6-methoxy-4-methylphenyl)-1H-pyrazol-3-yl)amino)pyrazine-2-carbonitrile] | – | 6 nM | 5.7 nM
CCc1cc(OC)c(-c2cc(Nc3cnc(C#N)cn3)n[nH]2)c(OC[C@H]2CCCNC2)c1 [Example 75, (S)-5-((5-(4-ethyl-2-methoxy-6-(piperidin-3-ylmethoxy)phenyl)-1H-pyrazol-3-yl)amino)pyrazine-2-carbonitrile] | – | 3.2 nM | 3.1 nM
COc1cc(F)cc(OC[C@@H]2CNCCS2)c1-c1cc(Nc2cnc(C#N)cn2)n[nH]1 [Example 77-A, (S)-5-((5-(4-fluoro-2-methoxy-6-(thiomorpholin-2-ylmethoxy)phenyl)-1H-pyrazol-3-yl)amino)pyrazine-2-carbonitrile] | – | 3.1 nM | 3.6 nM
COc1cc(F)cc(OC[C@H]2CNCCS2)c1-c1cc(Nc2cnc(C#N)cn2)n[nH]1 [Example 77-B, (R)-5-((5-(4-fluoro-2-methoxy-6-(thiomorpholin-2-ylmethoxy)phenyl)-1H-pyrazol-3-yl)amino)pyrazine-2-carbonitrile] | – | 17.3 nM | 16.7 nM

Other lines, results leading:

inhibition at 0.01 µM [1] | IC50 [2] | IC50 [3] | SMILES
85% | 192 nM | 187 nM | COc1cccc(OC[C@@H]2CNCCO2)c1-c1cc(Nc2cnc(C)cn2)n[nH]1 [Example 6, (S)—N-(5-(2-methoxy-6-(morpholin-2-ylmethoxy)phenyl)-1H-pyrazol-3-yl)-5-methylpyrazin-2-amine]
95% | 30.1 nM | 37.6 nM | COc1cccc(OC[C@H]2COCCN2)c1-c1cc(Nc2cnc(C#N)cn2)n[nH]1 [Example 7, (R)-5-((5-(2-methoxy-6-(morpholin-3-ylmethoxy)phenyl)-1H-pyrazol-3-yl)amino)pyrazine-2-carbonitrile]
95% | 23 nM | 24.8 nM | COc1cccc(OC[C@@H]2CNCCN2)c1-c1cc(Nc2cnc(C#N)cn2)n[nH]1 [Example 10, (S)-5-((5-(2-methoxy-6-(piperazin-2-ylmethoxy)phenyl)-1H-pyrazol-3-yl)amino)pyrazine-2-carbonitrile]
4.9% | > 1000 nM | > 1000 nM | COc1cccc(OC[C@@H]2CNCCN2C)c1-c1cc(Nc2cnc(C#N)cn2)n[nH]1 [Example 11, (S)-5-((5-(2-methoxy-6-((1-methylpiperazin-2-yl)methoxy)phenyl)-1H-pyrazol-3-yl)amino)pyrazine-2-carbonitrile]
31% | > 1000 nM | 995 nM | N#Cc1cnc(Nc2cc(-c3c(OC[C@@H]4CNCCO4)cccc3OC(F)(F)F)[nH]n2)cn1 [Example 20, (S)-5-((5-(2-(morpholin-2-ylmethoxy)-6-(trifluoromethoxy)phenyl)-1H-pyrazol-3-yl)amino)pyrazine-2-carbonitrile]
93% | 103 nM | 118 nM | COc1cnc(Nc2cc(-c3c(OC)cccc3OC[C@H]3CCCNC3)[nH]n2)cn1 [Example 26, (S)-5-methoxy-N-(5-(2-methoxy-6-(piperidin-3-ylmethoxy)phenyl)-1H-pyrazol-3-yl)pyrazin-2-amine]
95% | 83.8 nM | 129 nM | CCc1cnc(Nc2cc(-c3c(OC)cccc3OC[C@H]3CCCNC3)[nH]n2)cn1 [Example 27, (S)-5-ethyl-N-(5-(2-methoxy-6-(piperidin-3-ylmethoxy)phenyl)-1H-pyrazol-3-yl)pyrazin-2-amine]
